Test results from PubChem BioAssay (NCI).
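48-hour exposure; five concentrations; linearly interpolated endpoints. GI50 marks 50% less growth. Definition used: TGI = concentration required for complete inhibition of growth.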

Legend:
Assay in all cases: inhibition of tumour cell growth, NCI panel, 48 h
[1] = test system: CAKI-1 renal
[2] = test system: NCI-H460 lung
[3] = test system: SW-620 colon
[4] = test system: IGROV1 ovarian
[5] = test system: CCRF-CEM leukemia
[6] = test system: SK-MEL-28 melanoma
[7] = test system: NCI-H23 lung
[8] = test system: KM12 colon
[9] = test system: OVCAR-5 ovarian
[10] = test system: UACC-62 melanoma

SMILES	TGI [1]	TGI [2]	TGI [3]	TGI [4]	TGI [5]	TGI [6]	TGI [7]	TGI [8]	TGI [9]	TGI [10]	GI50 [1]	GI50 [2]	GI50 [3]	GI50 [4]	GI50 [5]	GI50 [6]	GI50 [7]	GI50 [8]	GI50 [9]	GI50 [10]
CCOC(=O)n1cncc1CC(NC(=O)Cc1c(C(=O)C=C(C)C)[nH]c2ccccc12)C(=O)OC (stereo not given)	34.8 µM	58 µM	> 100 µM	37.5 µM	50.9 µM	32.8 µM	68.2 µM	39.1 µM	35 µM	36.3 µM										
COc1cccc(-c2nc3c(C(=O)NCCN(C)C)cccc3[nH]2)c1	> 96 µM	34.6 µM	> 54.6 µM	53.9 µM	> 81.6 µM	31.4 µM	50.8 µM	> 72 µM	42.7 µM	31.8 µM										
O=S(=O)(O)c1c(N=Nc2c(O)ccc3ccccc23)ccc2ccccc12	> 100 µM		> 100 µM	> 100 µM	> 100 µM	> 100 µM	> 100 µM	> 100 µM	> 100 µM	> 100 µM										
Nc1nc(SCc2ccccc2)c2ncn(Cc3ccccc3)c2n1	> 86.5 µM	> 100 µM	> 100 µM	> 100 µM	> 100 µM	> 100 µM	> 100 µM	> 100 µM	> 100 µM	> 100 µM										
C=C1C(=O)OC2C1C(OC(=O)/C(C)=C/C)CC1(C)C(=O)CCC(=C)C21 (stereo not given)	17.9 µM	> 52.8 µM	23.4 µM	26.6 µM	> 80.9 µM	> 42.8 µM	30.1 µM	32 µM	32 µM	23.5 µM										
CC1(C)COC(/C=C/C2=NC(C)(C)CO2)=N1	23.4 µM	> 100 µM	26.9 µM	50.6 µM	28.8 µM	38.1 µM	58.1 µM	37.1 µM	54.4 µM	31.4 µM										
CN(C)Cc1ccc(C(=O)Nc2ccc3ncnc(Nc4ccc(Oc5cccc(F)c5)c(Cl)c4)c3c2)cc1	3.15 µM	3.31 µM	3.31 µM	2.6 µM	4.65 µM	3.09 µM	3.09 µM	3.21 µM	3.11 µM	3.23 µM	1.68 µM	1.76 µM	1.76 µM	1.12 µM	1.65 µM	1.68 µM	1.58 µM	1.75 µM	1.64 µM	1.77 µM
COC(=O)C1=CC[C@@H]2C(C(=O)O)=CO[C@@H](OC3OC(CO)C(O)C(O)C3O)[C@H]12 (stereo not given in full)	> 300 µM	> 300 µM	> 300 µM	> 300 µM	> 119 µM	> 300 µM	> 300 µM	> 300 µM	> 300 µM	> 300 µM										
c1ccc2sc(C3(N4CCCCC4)CCCC3)cc2c1	38.4 µM	20.7 µM	24.1 µM	23.6 µM	17.7 µM	28.7 µM	17.6 µM	23.4 µM	24.7 µM	29.4 µM										
COc1cc(-c2coc3c(OC)c(OC4OC(CO)C(O)C(O)C4O)c(OC)cc3c2=O)cc(OC)c1C (stereo not given)	31 µM	> 70.1 µM	> 41.3 µM	30.9 µM	> 41.7 µM	> 28.4 µM	14.1 µM	28.3 µM	32.7 µM	17.2 µM										
CC(=O)OCC1OC(O[C@@H]2c3c(O)c4c(c(O)c3C3=C(NN(c5ccc([N+](=O)[O-])cc5[N+](=O)[O-])[Se]3=O)[C@@]2(C)O)C(=O)c2ccccc2C4=O)C(OC(C)=O)C(OC(C)=O)C1OC(C)=O (stereo not given in full)	0.722 µM	0.72 µM	0.339 µM	1.09 µM	1.08 µM	1.02 µM	0.698 µM	1.58 µM	2.07 µM	0.936 µM										
S=C(Nc1ccc(Cl)cc1)Nc1ccc(Cl)cc1 (tested in a mixture with another compound)	7.08 µM	4.46 µM	13.8 µM	> 100 µM	9.83 µM	25.5 µM	6.05 µM	9.1 µM	9.71 µM	4.28 µM	2.15 µM	1.61 µM	2.99 µM	3.26 µM	1.61 µM	3.46 µM	1.87 µM	2.76 µM	2.38 µM	1.75 µM
[C-]#[O+].[C-]#[O+].[Ir].[O-]c1cccc2cccnc12	> 100 µM	> 100 µM	> 100 µM	> 100 µM		> 100 µM	> 100 µM	> 100 µM	> 100 µM	> 100 µM	> 100 µM	> 100 µM	> 100 µM			> 100 µM	> 100 µM	> 100 µM	> 100 µM	> 100 µM
COc1ccc(SC(C)(SC)c2ccccn2)c(OC)n1 (stereo not given)	> 100 µM	> 100 µM	> 100 µM	> 100 µM		> 100 µM	> 100 µM	> 100 µM	> 100 µM	> 100 µM										
N#C/C=C1\C=CC(O)C(O)C1OC1OC(CO)C(O)C(O)C1O (stereo not given)	> 100 µM	> 100 µM	> 100 µM	> 100 µM	> 100 µM	> 100 µM	> 100 µM	> 100 µM	> 100 µM	> 100 µM										
S=C1N(c2ccc(Cl)cc2)C2=C(N=Nc3ccccc3)C(=Nc3ccccc3S2)N1c1ccccn1	26.7 µM	25.7 µM	34.9 µM	1.47 µM	22.9 µM	29.4 µM	37.4 µM	23.8 µM	35.1 µM											
O=C1c2ccccc2-c2ccc(N=[N+]([O-])c3ccc4c(c3)C(=O)c3ccccc3-4)cc21	> 100 µM	> 100 µM	> 100 µM	> 100 µM	> 100 µM	> 100 µM	> 100 µM	> 100 µM	> 100 µM	> 100 µM										
O=S(=O)(c1ccc(I)cc1)N(c1ccccc1)S(=O)(=O)C(F)(F)C(F)(F)C(F)(F)C(F)(F)F	98.2 µM	> 100 µM	> 100 µM	> 100 µM	> 100 µM	> 100 µM	> 100 µM	> 100 µM	95.4 µM	> 100 µM										
CC(C)C(N=Cc1ccccc1O)C(=O)O (stereo not given)	> 100 µM	> 100 µM	> 100 µM	> 100 µM	> 100 µM	> 100 µM	> 100 µM	> 100 µM	> 100 µM	> 100 µM										
CC(O)C(O)C(N)CC=O (stereo not given)	> 500 µM	> 500 µM	> 185 µM	> 500 µM	> 500 µM	> 500 µM	> 500 µM	> 500 µM	> 500 µM	> 500 µM										
O=C(O)C1CC(c2ccccc2)=NN1c1ccccc1 (stereo not given)	> 100 µM	> 100 µM	> 100 µM	> 100 µM	> 100 µM	> 100 µM	> 100 µM	> 100 µM	> 100 µM	> 100 µM										
O=C1/C(=C\c2ccc(-c3ccc(Cl)cc3Cl)o2)SC2N=C(COc3ccc(Cl)cc3)NN12 (stereo not given)	> 100 µM	> 100 µM	> 100 µM	> 100 µM	> 100 µM	> 100 µM	> 100 µM	> 100 µM	> 100 µM	> 100 µM										
Fc1ccc(-c2ccc(-c3nnc(-c4cc(F)c(Cl)cc4Cl)o3)o2)cc1Cl	89.9 µM	> 100 µM	98.3 µM	> 100 µM	> 100 µM	68.2 µM	> 100 µM	74.1 µM	> 100 µM	51.2 µM	33.7 µM	29.7 µM	31.9 µM	30.1 µM	35 µM	24.9 µM	47.9 µM	26.1 µM	> 100 µM	17.6 µM
O=S(O)c1cc(Cl)cc(Cl)c1O		> 100 µM			> 100 µM	> 100 µM	> 100 µM	> 100 µM	> 100 µM	> 100 µM										
O=C(/C=C/c1ccc(O)cc1)NCCc1ccc(O)cc1	> 12.5 µM	> 12.5 µM	> 12.5 µM	> 12.5 µM	11.4 µM	> 12.5 µM	> 12.5 µM	> 12.5 µM	> 12.5 µM	> 12.5 µM										
C[N+]1(C)CCC(C#N)(c2ccccc2)CC1	> 100 µM	> 100 µM	> 100 µM	> 100 µM	> 100 µM	> 100 µM	> 100 µM	> 100 µM	> 100 µM											
